Converted amounts (≈) assume the structure as drawn.
Tests used:
[1] = solubility of the product in solvents; type: physicochemical
Method: Naphthalene-2,6-disulfonyl chloride (6.2 g, 0.02 mol) is dissolved in 100 ml dimethylformamide; to the solution is added, in 2-3 portions over about a minute, a solution of 3-(4-aminobenzenesulfonyl)acrylonitrile in 50 ml dimethylformamide containing 6 ml triethylamine (8.4 g, 0.04 mol). The temperature rises to 35° C by the exothermic reaction. The reaction mixture is maintained at room temperature for 2 hours and filtered to separate triethylamine hydrochloride therefrom. Addition of chloroform to the filtrate precipitates the product which, after washing with ethanol/water and drying, is in the form of a slightly off-white powder having a melting point of 312° C. […] It is naphthalene-2,6-bis-sulfon-[4-(2-cyanoethenesulfonyl)anilide]: ##SPC42##

[2] = test system: Aspergillus niger ATCC 6257; assay: agar incorporation test, antifungal activity; type: cell-based; details: lowest concentration showing no growth or sporulation, four days at 28° C; for MIC: Aspergillus niger, ATCC6257, 96 h, read-out: Antifungal Activity A. niger, minimum inhibitory concentration
Method: The anti-fungal activity of the test compounds was determined employing the "agar incorporation" technique, utilizing spores from Aspergillus niger ATCC 6257 as a representative organism. Test solutions were prepared as described above in acetone or dimethylsulfoxide. A source of carbon agar such as Mycophil Agar was used. The agar was melted and cooled and placed in a constant temperature water bath at 45° C + 3° C. About 13-14 ml of the agar was then poured into a sterile Petri dish, the required amount of test solution to give the desired concentration immediately added thereto, and the dish rotated and swirled by hand to obtain a uniform mixture before the agar hardened.
The hardened plates were inoculated with the test organism by fishing spores from a 7-14 day old slant with the inocculating needle and spotting the spores on the plates, usually in several places. The inoculated plates were incubated for four days in an incubator maintained at 28° C +2° C and with a relative humidity of 95%+.
The lowest concentration of each test compound showing no growth or sporulation of the test organism was taken as the minimum inhibitory concentration and is reported in the following tabulation.
(§1) The button assay and agar incorporation tests were also utilized to determine the corresponding inhibitory concentrations of various control materials, viz., the following well known commercial antimicrobials and fungicides: hexachlorophene, tribromosalicylanilide, trichlorocarbanilide,Captan (N-(trichloromethylthio)4cyclohexene-1,2-dicarboximide) and Zineb (zinc ethylenebis[dithiocarbamate]). The minimum inhibitory concentration of each of the various control materials against the respective organisms is indicated in Table IV below: […]

[3] = test system: Staphylococcus aureus ATCC 6538 DR; assay: button assay, antibacterial activity; type: cell-based; details: for MIC: Staphylococcus aureus, ATCC6538, 24 h, read-out: Antibacterial Activity S.aureus, minimum inhibitory concentration; for Antibacterial Activity S.aureus, minimum inhibitory concentration: button assay, lowest concentration showing a clear zone of inhibition, 24 hours at 37° C
Method: (§2) In the test program, the minimum inhibitory concentrations of the respective test compounds against various Gram positive and Gram negative bacteria were determined, employing the "button assay" method. The test organisms utilized were standard cultures of Staphylococcus aureus ATCC 6538 DR, a penicillin resistant Gram positive bacterium; Bacillus subtilis ATCC 9525, a spore-forming Gram positive bacillus; and Salmonella typhosa ATCC 6539, a Gram negative bacterium.
(§3) In the tests the respective compounds were dissolved in a suitable solvent, usually acetone or dimethylsulfoxide, to give solutions with known concentrations of active material. The highest concentration was ordinarily 1000 ppm (parts per million) [0.1%], and dilutions were made in suitable steps down to 1 ppm. Penicillin test buttons of filter paper having a diameter of 13 mm (socalled "Peniassay" buttons) were added to each solution within a test tube and left submerged for five minutes. They were then removed and left to dry on paper towels under sterile conditions. A laminar flow sterile cabinet equipped with ultraviolet lamps operating under positive air pressure was utilized for this purpose.
(§4) An 18-24 hour old nutrient broth culture (standard 1.5% nutrient agar) prepared in conventional manner from a slant and having passed through at least three consecutive daily transfers was used for inoculation. Melted and cooled sterile agar (45° C) was inoculated with the respective broth cultures by addition of 20 ml broth per liter of agar. The agar was then dispensed into Petri dishes (20 ml per plate) under sterile conditions and allowed to harden.
(§5) The test buttons were placed on the surface of the hardened agar and the plates incubated for 24 hours at 37° C. Where, on inspection, a clear zone of inhibition appeared around the button, inhibition of growth was presumed. Where growth touched the button there was no inhibition. For each of the test compounds, the lowest concentration showing a clear zone is reported as the inhibitory concentration in the following table. […]

[4] = test system: Bacillus subtilis ATCC 9525; assay: button assay, antibacterial activity; type: cell-based; details: 24 hours at 37° C; for MIC: Bacillus subtilis, ATCC9525, lowest concentration showing a clear zone of inhibition, read-out: Antibacterial Activity B.subtilis, minimum inhibitory concentration; for Antibacterial Activity B.subtilis, minimum inhibitory concentration: lowest concentration showing a clear zone of inhibition
Method: as §2, §3, §4
The test buttons were placed on the surface of the hardened agar and the plates incubated for 24 hours at 37° C. Where, on inspection, a clear zone of inhibition appeared around the button, inhibition of growth was presumed. Where growth touched the button there was no inhibition. For each of the test compounds, the lowest concentration showing a clear zone is reported as the inhibitory concentration in the following table.
as §1

[5] = test system: Salmonella typhosa ATCC 6539; assay: button assay, antibacterial activity; type: cell-based; details: for MIC: Salmonella enterica, 24 h, read-out: Antibacterial Activity S.typhosa, minimum inhibitory concentration; for Antibacterial Activity S.typhosa, minimum inhibitory concentration: button assay, lowest concentration showing a clear zone of inhibition, 24 hours at 37° C
Method: as §2
as §3, with “The” for “In the tests the respective compounds were dissolved in a suitable solvent, usually acetone or dimethylsulfoxide, to give solutions with known concentrations of active material. The”
as §4, §5

[6] = stability of the recovered product; type: physicochemical; details: recovered by filtration and drying at low temperature under vacuum
Method: 10.4 g (0.05 mol) of 2-cyanovinyl 4-aminophenyl sulfone is dissolved in 100 ml of acetone and the solution cooled to 0° C. […] of phosphorus trichloride dissolved in 20 ml of acetone is added dropwise with stirring. After about 40 minutes the reaction mixture is poured into ice water with vigorous stirring. The intermediate initially formed hydrolyzes easily upon the addition of water to form di-4-(2-cyanoethenesulfonyl)anilidophosphine oxide, which can be recovered by filtration and drying at low temperature under vacuum.

| SMILES | solubility in dimethylformamide and dimethylsulfoxide ([1]; dimethylformamide, dimethylsulfoxide) | solubility in ethanol, chloroform and acetone ([1]; ethanol, chloroform, acetone) | MIC [2] | MIC [3] | MIC [4] | MIC [5] | stability of the product [6] | Antifungal Activity A. niger, minimum inhibitory concentration [2] | Antibacterial Activity S.aureus, minimum inhibitory concentration [3] | Antibacterial Activity B.subtilis, minimum inhibitory concentration [4] | Antibacterial Activity S.typhosa, minimum inhibitory concentration [5] |
| --- | --- | --- | --- | --- | --- | --- | --- | --- | --- | --- | --- |
| N#CC=CS(=O)(=O)c1ccc(NS(=O)(=O)c2ccc3cc(S(=O)(=O)Nc4ccc(S(=O)(=O)C=CC#N)cc4)ccc3c2)cc1 [Example 37, naphthalene-2,6-bis-sulfon-[4-(2-cyanoethenesulfonyl)anilide]] | soluble | almost insoluble | 1000 µg/mL (≈ 1500 µM) | 20 µg/mL (≈ 29.9 µM) | 50 µg/mL (≈ 74.8 µM) | 20 µg/mL (≈ 29.9 µM) | – | – | – | – | – |
| N#CC=CS(=O)(=O)c1ccc(N[PH](=O)Nc2ccc(S(=O)(=O)C=CC#N)cc2)cc1 [Example 57, di-4-(2-cyanoethenesulfonyl)anilidophosphine oxide] | – | – | 100 µg/mL (≈ 216 µM) | 20 µg/mL (≈ 43.2 µM) | 20 µg/mL (≈ 43.2 µM) | 20 µg/mL (≈ 43.2 µM) | somewhat unstable | – | – | – | – |
| O=C(Nc1ccc(Br)cc1)c1cc(Br)cc(Br)c1O [tribromosalicylanilide, reference compound] | – | – | – | – | – | – | – | > 1,000 ppm | 100 ppm | 100 ppm | 50 ppm |
| O=C(Nc1ccc(Cl)cc1)Nc1ccc(Cl)c(Cl)c1 [trichlorocarbanilide, reference compound] | – | – | – | – | – | – | – | 1,000 ppm | 10 ppm | > 10,000 ppm | 10,000 ppm |

— patent publication US3943154A, “Acylamides of beta-cyano-ethenesulfonyl substituted aminoarenes” (Sanitized Incorporated, priority 1973, dated 1976)
